Assay results as given in ChEMBL document CHEMBL1201862, “PubChem BioAssay data set” (2004).
Active and inactive are the calls of the source.

Key:
[1] = biological target: T1, Histone-lysine N-methyltransferase NSD2 (Homo sapiens, UniProt O96028); assay type: biochemical
T1 sequence (O96028 whole entry): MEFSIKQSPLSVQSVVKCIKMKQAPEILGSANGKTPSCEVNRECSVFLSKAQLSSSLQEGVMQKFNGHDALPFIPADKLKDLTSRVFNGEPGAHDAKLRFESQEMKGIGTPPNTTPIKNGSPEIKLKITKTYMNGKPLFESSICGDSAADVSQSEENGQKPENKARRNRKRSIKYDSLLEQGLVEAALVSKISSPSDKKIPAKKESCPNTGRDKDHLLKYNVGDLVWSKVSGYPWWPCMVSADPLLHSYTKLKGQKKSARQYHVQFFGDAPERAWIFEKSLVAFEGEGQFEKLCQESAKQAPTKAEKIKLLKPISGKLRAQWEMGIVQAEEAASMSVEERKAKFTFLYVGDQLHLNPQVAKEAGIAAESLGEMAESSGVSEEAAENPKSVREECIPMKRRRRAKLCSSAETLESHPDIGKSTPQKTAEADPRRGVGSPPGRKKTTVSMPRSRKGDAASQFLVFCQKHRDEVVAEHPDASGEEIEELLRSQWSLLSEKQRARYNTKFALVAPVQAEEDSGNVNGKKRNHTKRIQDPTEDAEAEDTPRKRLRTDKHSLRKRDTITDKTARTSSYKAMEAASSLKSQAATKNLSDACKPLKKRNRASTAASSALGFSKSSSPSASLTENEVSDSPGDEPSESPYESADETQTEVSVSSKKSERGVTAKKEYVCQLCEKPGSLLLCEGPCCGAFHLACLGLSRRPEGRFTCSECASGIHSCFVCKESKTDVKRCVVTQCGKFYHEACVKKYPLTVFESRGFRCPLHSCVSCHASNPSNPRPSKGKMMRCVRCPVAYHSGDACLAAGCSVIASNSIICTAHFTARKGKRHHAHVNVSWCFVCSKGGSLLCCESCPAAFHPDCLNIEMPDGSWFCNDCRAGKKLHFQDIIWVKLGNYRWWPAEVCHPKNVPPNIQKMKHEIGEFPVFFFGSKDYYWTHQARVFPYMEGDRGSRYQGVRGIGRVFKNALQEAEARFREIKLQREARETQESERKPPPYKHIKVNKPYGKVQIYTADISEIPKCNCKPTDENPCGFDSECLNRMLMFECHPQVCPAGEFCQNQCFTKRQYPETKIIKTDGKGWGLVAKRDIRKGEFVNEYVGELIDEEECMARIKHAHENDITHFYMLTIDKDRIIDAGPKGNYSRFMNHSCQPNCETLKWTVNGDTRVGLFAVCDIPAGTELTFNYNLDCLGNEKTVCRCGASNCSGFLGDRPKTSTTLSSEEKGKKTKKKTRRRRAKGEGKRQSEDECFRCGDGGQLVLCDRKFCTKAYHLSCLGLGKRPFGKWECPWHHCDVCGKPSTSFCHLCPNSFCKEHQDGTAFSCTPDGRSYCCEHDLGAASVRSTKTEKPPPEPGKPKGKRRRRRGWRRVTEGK

[2] = biological target: T2, Caspase-3 (Homo sapiens, UniProt P42574); assay type: functional;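 also: Dose-response selectivity test against caspase-3 for candidate inhibitors of sentrin-specific proteases (SENPs)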
T2 sequence (P42574 whole entry): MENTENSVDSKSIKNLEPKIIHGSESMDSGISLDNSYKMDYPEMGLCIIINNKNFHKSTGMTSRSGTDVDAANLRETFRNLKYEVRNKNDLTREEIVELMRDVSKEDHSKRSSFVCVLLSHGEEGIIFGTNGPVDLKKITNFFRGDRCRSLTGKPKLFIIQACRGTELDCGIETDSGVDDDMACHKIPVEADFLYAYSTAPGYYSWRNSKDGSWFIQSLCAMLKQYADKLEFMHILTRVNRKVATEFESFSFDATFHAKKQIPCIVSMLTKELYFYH

[3] = biological target: T3, Protein RecA (Mycobacterium tuberculosis, UniProt P9WHJ3); test: Fluorescence Cell-Free Homogeneous Dose Retest to Identify Inhibitors of RecA-Intein Splicing Activity. [Related pubchem assays (depositor defined):AID2097, AID2223, AID489010, AID492950]; assay type: functional
T3 sequence (P9WHJ3 whole entry): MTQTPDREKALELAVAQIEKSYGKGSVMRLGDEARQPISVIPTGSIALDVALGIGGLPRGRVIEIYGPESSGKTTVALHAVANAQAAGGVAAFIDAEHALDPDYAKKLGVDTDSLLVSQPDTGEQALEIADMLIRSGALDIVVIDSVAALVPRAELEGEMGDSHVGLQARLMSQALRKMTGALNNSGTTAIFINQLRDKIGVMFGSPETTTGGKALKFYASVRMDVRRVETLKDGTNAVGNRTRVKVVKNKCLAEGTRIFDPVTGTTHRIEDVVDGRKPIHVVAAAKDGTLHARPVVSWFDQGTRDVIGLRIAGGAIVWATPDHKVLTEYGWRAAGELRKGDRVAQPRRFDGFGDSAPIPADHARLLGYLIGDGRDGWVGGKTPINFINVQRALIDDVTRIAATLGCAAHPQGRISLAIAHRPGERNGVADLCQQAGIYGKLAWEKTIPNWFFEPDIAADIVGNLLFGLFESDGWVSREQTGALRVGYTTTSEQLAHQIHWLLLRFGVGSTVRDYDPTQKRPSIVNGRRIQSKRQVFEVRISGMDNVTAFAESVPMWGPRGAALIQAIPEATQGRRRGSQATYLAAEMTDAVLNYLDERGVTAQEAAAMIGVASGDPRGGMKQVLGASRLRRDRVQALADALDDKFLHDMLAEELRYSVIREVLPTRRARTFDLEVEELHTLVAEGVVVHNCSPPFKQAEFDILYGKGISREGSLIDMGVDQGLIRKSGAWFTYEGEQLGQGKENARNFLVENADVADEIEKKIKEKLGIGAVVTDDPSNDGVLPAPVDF

Row | Structure (SMILES) | AC50 [1] | IC50 [2] | EC50 [3]
1 | O=C(NC1(O)C(=O)c2ccccc2C1=O)c1ccc(C(F)(F)F)cc1 | 3.39 µM (active) | 94.5 µM (active) | 
2 | Cn1c(=O)[nH]c(=O)c2c1nc([N+](=O)[O-])n2Cc1ccccc1 |  |  | 5.87 µM (active)
3 | O=C(NC1(O)C(=O)c2ccccc2C1=O)c1c(Cl)cccc1Cl | 3.16 µM (active) | > 100 µM (inactive) | 28.6 µM (active)
4 | O=C(COC(=O)c1ccc([N+](=O)[O-])s1)Nc1ncc(C(F)(F)F)cc1Cl | 12.5 µM (active) | 10 µM (active) | 
5 | CCN(c1ccccc1)c1cc2ccccc2c(=O)[nH]1 |  | 2.69 µM (active) | > 380 µM (inactive)
